Structures are written as SMILES.

The data set can be described thus: Shelf stability of the loaded reservoir electrode assembly in storage. In kind it is physicochemical. To be noted: incorporated into the reservoir.

Text: In the present example, an aqueous loading solution of 30% lidocaine HCI, 3% epinephrine, 30% glycerin, 0.05% sodium metabisulfite, 0.03% ethylene diamine tetraacetic acid, and 0.06% citric acid are used for the loading solution. The medicaments for delivery are lidocaine HCI and epinephrine, the glycerin serves as a humectant, the other minor components serve to enhance drug stability by chelating metal ions and serving as antioxidants. In order to load this solution onto the reservoir with electrode 112, laminate release liner 132 is removed from side 118 of reservoir 114 and a three-hundred microliter aliquot of this loading solution is applied to exposed surface 118, which is then covered with a final cover that remains in place until the reservoir is applied to a patient to protect the reservoir.

For `CNC[C@H](O)c1ccc(O)c(O)c1` [epinephrine, Epinephrine Bitartrate], the “shelf stability of labile medicament” value was “satisfactory shelf stability”.

These data come from US20030055405A1, “Iontophoretic Drug Delivery Device and Reservoir and Method of Making Same” (Vyteris, Inc., priority 1993, published 2003).
